Test [1] deals with T. cruzi intracellular amastigotes in H9c2 cells. Briefly: Rate-of-Kill (RoK) high-content imaging assay, amastigotes per cell (AM/CELL) and curve descriptors. The arrangement: key to ME_24h / ME_48h / ME_72h: % reduction in parasite burden (cidal response); t50pct_MCC50 / t50pct_Cmax: unit not given here. Type of test: cell-based, Trypanosoma cruzi. As to conditions: for ME_24h: 24h; for ME_48h: 48h; for ME_72h: 72h; for t50%_Cmax / tlag_Cmax / t50pct_Cmax: at Cmax; for ME_24h (%): maximum effect at 24 h; for ME_24h (%) / ME_48h (%) / ME_72h (%): RoK assay; for ME_48h (%): maximum effect at 48 h; for ME_72h (%): maximum effect at 72 h; for ME 24h (maximum effect at 24 hours, intracellular amastigotes): maximum percentage of parasite burden reduction reached by any concentration. Put shortly:
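Readouts at each time point are amastigotes per cell and host nuclei count (cytotoxicity), from DRAQ5 high-content imaging. Infection: trypomastigotes on H9c2 at MOI 8 for 18 h. Dosing was 5 μM single point or 11 points, 1/3 steps from 50 μM. Effect scaled between 4 h infected and uninfected controls.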

Test [2] deals with TcCYP51. As to conditions: formerly reported; cited from earlier work.

Results on four molecules are retold here after paper PMC8318231, “Rate-of-Kill (RoK) assays to triage large compound sets for Chagas disease drug discovery: Application to GSK Chagas Box” (PLoS Neglected Tropical Diseases, 2021).

For the molecule `COc1ccc(S(=O)(=O)NC(C)C)cc1Nc1ncc(-c2cccc(F)c2)cn1` [TCMDC-143248], in test [1] (figure 5), the ME_24h is -143.559, the ME_48h was -20.0816, the ME_72h is on record as 54.2238 and the t50pct_Cmax is listed as 72. Besides, in test [1] (figure 5), the tlag_Cmax was found to be 24, the MCC50 amounted to 50 µM and the MCCE is on record as 0.6173. Moreover, in test [1] (RoK curve descriptor), the “MCC50” value is recorded as 50.0 µM and the “MCCE” value is on record as 0.6 µM. The “AM/CELL NORM” value in test [1] (Time 4, sheet figure 4 A) is -6.932. Further, the “AM/CELL NORM” value in test [1] (Time 24, sheet figure 4 A) is given as -311.598. Further, in test [1] (Time 48, sheet figure 4 A), the “AM/CELL NORM” value was -64.9455. Besides, the “AM/CELL NORM” value in test [1] (Time 72, sheet figure 4 A) was determined as 9.4251. In test [1], the “t50%_Cmax” value worked out at 72.0 h, the “tlag_Cmax” value was found to be 24.0 h, the “ME_24h (%)” value was -143.6% and the “ME_48h (%)” value is given as -20.1%. In addition, in test [1], the “ME_72h (%)” value is on record as 54.2% and the “ME 24h (maximum effect at 24 hours, intracellular amastigotes)” value (“ME 24h” for short) was -47.9652%. In addition, in test [1] (at MCC50), the “t50%_MCC50” value came to 72.0 h and the “tlag_MCC50” value was 24.0 h. In test [1] (at MCC50, figure 5), this molecule had a t50pct_MCC50 of 72 and a tlag_MCC50 of 48. Besides, in test [2], the “CYP51 pIC50” value was under 4.
On to `COc1ccc(C(=O)Nc2cc(C(F)(F)F)ccc2N2CCOCC2)c(OC)c1` [TCMDC-143310], for which, in test [1] (figure 5), the ME_24h is recorded as 64.6908, the ME_48h was found to be 80.1309, the ME_72h is 94.1302 and the t50pct_Cmax was found to be 24. In test [1] (figure 5), this molecule yielded a tlag_Cmax of 4 and an MCCE of 0.6173. In addition, in test [1] (RoK curve descriptor), the “MCC50” value is reported as 1.9 µM and the “MCCE” value is listed as 0.6 µM. For the same molecule, the “AM/CELL NORM” value in test [1] (Time 4, sheet figure 4 A) is recorded as -57.2428. Also, the “AM/CELL NORM” value in test [1] (Time 24, sheet figure 4 A) came to 64.6908. Further, the “AM/CELL NORM” value in test [1] (Time 48, sheet figure 4 A) is on record as 80.1309. In test [1] (Time 72, sheet figure 4 A), the “AM/CELL NORM” value was 94.1302. In test [1], the “t50%_Cmax” value came out at 24.0 h, the “tlag_Cmax” value was determined as 4.0 h, the “ME_24h (%)” value is on record as 64.7% and the “ME_48h (%)” value came out at 80.1%. In test [1], the “ME_72h (%)” value was found to be 94.1% and the “ME 24h” value was 64.6908%. Moreover, in test [1] (at MCC50), the “t50%_MCC50” value came to 72.0 h and the “tlag_MCC50” value turned out to be 4.0 h. In test [1] (at MCC50, figure 5), this molecule had a t50pct_MCC50 of 72 and a tlag_MCC50 of 4. This molecule registered an MCC50 in test [1] (figure 5, in µM) of 1.852. In test [2], the “CYP51 pIC50” value is given as under 4.
With `Cc1cccnc1CN1CCN(CCCOc2ccc(-c3ccc(C(N)=O)cc3)cc2)CC1` [TCMDC-143291], in test [1] (figure 5), the ME_24h is reported as -149.164, the ME_48h was -418.951, the ME_72h is listed as -403.993 and the t50pct_Cmax was determined as 72. In test [1] (figure 5), this molecule registered a tlag_Cmax of 48, an MCC50 of 50 µM and an MCCE of 16.6667. Moreover, the “MCCE” value in test [1] (RoK curve descriptor) was determined as 16.7 µM. In test [1] (Time 4, sheet figure 4 A), the “AM/CELL NORM” value is recorded as 9.834. In addition, the “AM/CELL NORM” value in test [1] (Time 24, sheet figure 4 A) is -41.6178. For the same molecule, the “AM/CELL NORM” value in test [1] (Time 48, sheet figure 4 A) is -122.335. The “AM/CELL NORM” value in test [1] (Time 72, sheet figure 4 A) is -107.466. In test [1], the “tlag_Cmax” value is 48.0 h, the “ME_24h (%)” value is given as -149.2%, the “ME_48h (%)” value was -419.0% and the “ME_72h (%)” value is on record as -404.0%. The “ME 24h” value in test [1] was -41.6178%. In test [1] (at MCC50, figure 5), this molecule yielded a t50pct_MCC50 of 72 and a tlag_MCC50 of 72. In addition, the “CYP51 pIC50” value in test [2] is under 4.
In test [1] (figure 5), `COc1ccc(NS(=O)(=O)c2cc(NC(=O)Cc3ccc(C)cc3)ccc2N2CCOCC2)cc1` [TCMDC-143313] came in with an ME_24h of -207.804, an ME_48h of -855.253, an ME_72h of -1487.77 and a t50pct_Cmax of 72. In test [1] (figure 5), this molecule gave a tlag_Cmax of 72, an MCC50 of 50 µM and an MCCE of 0.2058. The “MCCE” value in test [1] (RoK curve descriptor) came out at 0.2 µM. In test [1] (Time 4, figure 4 A), the “AM/CELL NORM” value is recorded as -12.1404. Further, the “AM/CELL NORM” value in test [1] (Time 24, figure 4 A) was -266.8. The “AM/CELL NORM” value in test [1] (Time 48, figure 4 A) was -1156.6. In addition, in test [1] (Time 72, figure 4 A), the “AM/CELL NORM” value is reported as -1899.09. For the same molecule, in test [1], the “tlag_Cmax” value stood at 72.0 h, the “ME_24h (%)” value was -207.8%, the “ME_48h (%)” value is on record as -855.3% and the “ME_72h (%)” value is reported as -1487.8%. The “ME 24h” value in test [1] is recorded as 23.7828%. In test [1] (at MCC50, figure 5), this molecule gave a t50pct_MCC50 of 72 and a tlag_MCC50 of 72. In test [2], the “CYP51 pIC50” value is under 4.
